O=[N+]([O-])c1cc[nH]n1
solubility (mole fraction)
Conditions	283.15 K	288.15 K	293.15 K	298.15 K	303.15 K	308.15 K	313.15 K	318.15 K	323.15 K
in THF	0.00254	0.00305	0.00386	0.00456	0.00553	0.00654	0.00761	0.00903	0.0106
in acetone	0.0129	0.0152	0.0177	0.0202	0.0228	0.0261	0.0301	0.0339	0.0376
in acetonitrile	0.0148	0.017	0.0195	0.0223	0.0254	0.0289	0.0327	0.037	0.0418
in benzene	0.00052	0.00066	0.00086	0.00109	0.00139	0.00171	0.00215	0.00265	0.00323
in ethanol	0.0254	0.0292	0.0328	0.0364	0.041	0.0449	0.0548	0.0599	0.0646
in ethyl acetate	0.00586	0.00728	0.00905	0.0107	0.0133	0.0163	0.0196	0.0236	0.0282
in isopropyl acetate	0.00234	0.00292	0.00364	0.00456	0.00566	0.00695	0.00849	0.0102	0.0125
in methanol	0.00822	0.0131	0.017	0.0208	0.0256	0.0338	0.0455	0.0605	0.0854
in methyl acetate	0.0083	0.0102	0.0125	0.0149	0.0178	0.0209	0.0244	0.0282	0.032
in n-butyl acetate	0.00323	0.00423	0.00542	0.00687	0.00865	0.0107	0.0132	0.0159	0.0191
in n-propanol	0.0224	0.0255	0.0295	0.0336	0.0384	0.0442	0.0481	0.0551	0.0627
in n-propyl acetate	0.00676	0.00793	0.0092	0.0106	0.0123	0.0142	0.0165	0.0193	0.0225
in toluene	0.00148	0.00187	0.00232	0.00286	0.00354	0.00437	0.00514	0.00623	0.00729
in water	0.00032	0.0004	0.00051	0.00065	0.00083	0.00105	0.00133	0.0017	0.00216

Source: BigSolDB 2.1
